{
  "source": "patent US8815865B2",
  "about": "“Substituted 4-hydroxypyrimidine-5-carboxamides” (Merck Sharp & Dohme Corp., priority 2009, dated 2014)",
  "key": {"PHD2": {"biological_target": "T1, PHD2 (Homo sapiens, UniProt Q9GZT9)", "T1 construct": "FLAG-tagged full length PHD2 expressed in and purified from baculovirus-infected Sf9 cells; FLAG; made in house; host or cells: baculovirus-infected Sf9 cells", "T1 sequence (Q9GZT9 whole entry)": "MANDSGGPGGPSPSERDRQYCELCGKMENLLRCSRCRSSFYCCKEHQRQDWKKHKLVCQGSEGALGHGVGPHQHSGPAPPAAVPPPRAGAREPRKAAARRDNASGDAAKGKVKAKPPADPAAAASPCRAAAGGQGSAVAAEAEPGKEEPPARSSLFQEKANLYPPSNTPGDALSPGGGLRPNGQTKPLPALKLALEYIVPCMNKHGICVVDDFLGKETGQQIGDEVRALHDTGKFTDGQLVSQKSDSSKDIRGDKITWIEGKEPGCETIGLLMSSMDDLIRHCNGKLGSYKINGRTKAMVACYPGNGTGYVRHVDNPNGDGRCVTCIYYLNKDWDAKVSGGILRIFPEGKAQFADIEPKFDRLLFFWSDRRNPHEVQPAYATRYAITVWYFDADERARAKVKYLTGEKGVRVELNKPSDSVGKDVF", "assay": "PHD2 / HIF-1α peptide time resolved fluorescence inhibition assay", "type": "biochemical", "method": "To each well of a 96-well plate was added 1 μL of test compound in DMSO and 20 μl of assay buffer (50 mM Tris pH 7.4/0.01% Tween-20/0.1 mg/ml bovine serum albumin/10 μM ferrous sulfate/1 mM sodium ascorbate/20 μg/ml catalase) containing 0.15 μg/ml FLAG-tagged full length PHD2 expressed in and purified from baculovirus-infected Sf9 cells. After a 30 min preincubation at room temperature, the enzymatic reactions were initiated by the addition of 4 μL of substrates (final concentrations of 0.2 μM 2-oxoglutarate and 0.5 μM HIF-1α peptide biotinyl-DLDLEMLAPYIPMDDDFQL). After 2 hr at room temperature, the reactions were terminated and signals were developed by the addition of a 25 μL quench/detection mix to a final concentration of 1 mM ortho-phenanthroline, 0.1 mM EDTA, 0.5 nM anti-(His)6 LANCE reagent (Perkin-Elmer Life Sciences), 100 nM AF647-labeled streptavidin (Invitrogen), and 2 μg/ml (His)6-VHL complex (S. Tan (2001) Protein Expr. Purif. 21, 224-234). The ratio of time resolved fluorescence signals at 665 and 620 nm was determined, and percent inhibition was calculated relative to an uninhibited control sample run in parallel."}, "[1]": {"assay": "Pharmacokinetics after intravenous dosing in dogs (plasma concentrations by LC-MS/MS)", "type": "in vivo, dogs (beagles)", "conditions": "dog (beagle), 0.5 mg/kg intravenously", "method": "The pharmacokinetics of Example 1 (E-1) was evaluated, and compared to that of Example 163 and Example 190 both disclosed in International PCT Application, No. PCT/US09/036,501, filed Mar. 9, 2009. Compounds were formulated in a 1:1 solution (by volume) of PEG200: water and dosed at 0.5 mg/kg of body weight. The formulation was dosed intravenously in 2 dogs (beagles), and blood was drawn at the following time points (hours) 0.08, 0.25, 0.5, 1, 2, 4, 6, 8, 24. The plasma concentrations shown in the table below were determined by protein precipitation followed by liquid chromatography—tandem mass spectrometry analysis."}},
  "note": "pIC50: −log10 of the molar value.",
  "data": [
    {"smiles": "COc1ccc(C(NC(=O)c2cnc(-c3cccnn3)nc2O)C2CCOCC2)cn1", "note": "(single isomer, unassigned) [Example 1, (R)- or (S)-4-Hydroxy-N-[(6-methoxypyridin-3-yl)(tetrahydro-2H-pyran-4-yl)methyl]-2-pyridazin-3-ylpyrimidine-5-carboxamide]", "values": [
      {"measurement": "IC50, inhibition of the interaction between PHD2 and a HIF peptide", "setting": "PHD2; range printed in mixed units (nanomolar to micromolar)", "value": "0.0001 to 10", "unit": "µM"},
      {"measurement": "pIC50", "setting": "PHD2; read-out: PHD2 binding activity expressed as IC50", "value": "≥ 8.00"},
      {"measurement": "MRT", "setting": "[1]", "value": 7.93, "unit": "h"},
      {"measurement": "clearance", "setting": "[1]", "value": 0.081, "unit": "L/h/kg"},
      {"measurement": "concentration at 0.08 h", "setting": "[1]; PEG200:water 1:1, time 0.08 hours", "value": 2.23, "unit": "µM"},
      {"measurement": "half-life", "setting": "[1]; read-out: T ½ (converted)", "value": 6.07, "unit": "h"},
      {"measurement": "concentration at 0.25 h", "setting": "[1]; time 0.25 hours", "value": 2.06, "unit": "µM"},
      {"measurement": "concentration at 0.5 h", "setting": "[1]; time 0.50 hours", "value": 1.96, "unit": "µM"},
      {"measurement": "concentration at 1 h", "setting": "[1]; time 1.00 hours", "value": 1.66, "unit": "µM"},
      {"measurement": "concentration at 2 h", "setting": "[1]; time 2.00 hours", "value": 1.39, "unit": "µM"},
      {"measurement": "concentration at 4 h", "setting": "[1]; time 4.00 hours", "value": 1.32, "unit": "µM"},
      {"measurement": "concentration at 6 h", "setting": "[1]; time 6.00 hours", "value": 0.917, "unit": "µM"},
      {"measurement": "concentration at 8 h", "setting": "[1]; time 8.00 hours", "value": 0.504, "unit": "µM"},
      {"measurement": "concentration at 24 h", "setting": "[1]; time 24.00 hours", "value": 0.1, "unit": "µM"}
    ]}
  ]
}
